From PMC12668304, “A Triple Threat Against Ovarian Cancer: Os(II)‐Pt(IV)‐Ceritinib Conjugates for Photodynamic Therapy, Chemotherapy, and Immunogenic Cell Death Induction” (Angewandte Chemie (International Ed. in English), 2025)
Where two headings read alike, the source gives them in different places.

Tests used:
A2780 cells = test: (Photo-)cytotoxicity on 2D cell monolayers, resazurin assay; type: cell-based, human; details: A2780, normoxic, dark, 4 h exposure, total 48 h incubation, read-out: IC50 Dark
Description: (§1) The 2D cytotoxicity and phototoxicity profiles of Os‐Pt‐Cer and controls, were evaluated in a panel of cancerous cell lines, including A2780 (ovarian carcinoma), A549 (non‐small cell lung carcinoma), and MCA205 (murine fibrosarcoma), as well as a non‐cancerous retinal pigment epithelial cell line (RPE‐1). Cells were treated with the compounds (0.003–100 µM) for 4 h, either kept in the dark or irradiated at 670 nm (13.5 J cm^− ^2) (Table S4 and Figure S22) or 740 nm (12.6 J cm^− ^2) and viability was assessed 44 h post‐treatment. To verify robustness, the incubation was extended to 72 h. […]
(§2) Human ovarian cancer (A2780) cells and mouse fibrosarcoma cells (MCA205) were cultured in RPMI media. Retinal pigment epithelium (RPE -1) cells were cultured in DMEM/F -12 medium. Lung cancer cells (A549) were cultured in F -12K medium. These cell lines were complemented with 10% of fetal bovine serum, 100 U/mL penicillin -streptomycin mixture, and maintained in a humidified atmosphere […]
(§3) (Photo-)cytotoxicity on 2D cell monolayers
(§4) The cytotoxicity of the compounds was assessed by measuring cell viability using a resazurin assay.
(§5) The cells were seeded in triplicates in 96 well plates with a density of 10 4 cells per well in 100 μL of media. After 24 h, the medium was removed, and the cells were treated with increasing concentrations (0.003 → 100 µM) of the compounds diluted in cell media , achieving a total volume of 100 μL/well.
(§6) The cells were incubated with the compound for 4 h (final incubation time 48 h) or 24 h (final incubation time 72 h). After this time, the media was removed and replaced with 100 μL of fresh medium. For the phototoxicity studies, the cells were exposed to light with an Atlas Photonics LUMOS BIO irradiation system. Each well was constantly irradiated at 670 nm (60 min, 13.50 J·cm-2) or 740 nm (60 min, 12.60 J·cm-2). During the irradiation, the temperature of the plate was maintained at 37 °C. The cells were grown in the incubator for an additional 44 or 48 h, respectively. For the determination of the dark cytotoxicity, the cells were not irradiated and after the medium exchange directly incubated for 44 h.
(§7) After this time, the medium was replaced with fresh medium containing resazurin (0.2 mg/mL). After […]
(§8) 4 h of incubation, the conversion of resazurin into resorufin was determined upon excitation at 540 nm and measurement of its emission at 590 nm using a Cytation 5 Imaging Reader from BioTek. The obtained data was analysed with the GraphPad Prism software […]
(§9) After 24 h of incubation at 37 °C, 5% CO 2, plates were read using a SpectraMaxM2 Microplate Reader ( λexc = 540 nm; λread = 590 nm). Fluorescence data were normalised, and data were fitted using GraphPad Prism Software, and IC 50 was calculated by non - linear regression. Changes in the size and shape of MCTS were monitored every 24 h using Cytation 5 Imaging Reader from BioTek, objective x4.
(§10) Intracellular distribution by confocal fluorescence microscopy
(§11) 10^4 cells/well (A2780 cells) were seeded in complete medium (RPMI) in µ -slide 8 well (Ibidi) (100 µl/well) and left for 24 h to attach to the bottom. Then, the culture medium was removed , and 100 µl of solution of the corresponding complexes (5 µM) was added. The complexes were incubated with the cells for 4 hours. Thereafter, the medium was removed and replaced by RPMI without phenol red , and Hoechst and MitoTracker Green were added at a final concentration of 1 µg/mL. They were incubated with the cells for 30 min in the dark at 37 °C. Images were collected in a sequential mode in a Leica TCS SP8 confocal microscope with a 60x oil immers ion objective, a line average of 4, and a format of […]
(§12) (MTG)→ 500 -550nm, and 488 nm (complexes)→ 680 -730 nm. The confocal pinhole was 1 Airy unit.
(§13) Images were analysed with LAS X Flim FCS software.
(§14) Intracellular distribution by ICP -MS

RPE‐1 cells = test: as above; type: cell-based; details: RPE‐1, normoxic, dark, 4 h exposure, total 48 h incubation, read-out: IC50 Dark
Description: as §1, §2, §3, §4, §5, §6, §7, §8, §9, §10, §11, §12, §13, §14

| Structure (SMILES) | IC50 (A2780 cells; Homo sapiens) [µM] | IC50 (RPE‐1 cells; Homo sapiens) [µM] | IC50 (A2780 cells) [µM] | IC50 (RPE‐1 cells) [µM] |
| --- | --- | --- | --- | --- |
| Cc1cc(Nc2ncc(Cl)c(Nc3ccccc3S(=O)(=O)C(C)C)n2)c(OC(C)C)cc1C1CCNCC1 [Ceritinib] | 2.61 ± 0.5 | 4.76 ± 0.2 |  |  |
| O=C1[O][Pt]2([NH][C@@H]3CCCC[C@H]3[NH]2)[O]C1=O [Oxaliplatin] |  |  | 46.15 ± 0.2 | > 100 |
